{
  "source": "paper PMC4775864",
  "about": "(Theranostics, 2016)",
  "biological_target": "T1, endogenous EMMPRIN (Mus musculus, UniProt P18572)",
  "T1 sequence (P18572 22-273 isoform P18572-2 limits assumed)": "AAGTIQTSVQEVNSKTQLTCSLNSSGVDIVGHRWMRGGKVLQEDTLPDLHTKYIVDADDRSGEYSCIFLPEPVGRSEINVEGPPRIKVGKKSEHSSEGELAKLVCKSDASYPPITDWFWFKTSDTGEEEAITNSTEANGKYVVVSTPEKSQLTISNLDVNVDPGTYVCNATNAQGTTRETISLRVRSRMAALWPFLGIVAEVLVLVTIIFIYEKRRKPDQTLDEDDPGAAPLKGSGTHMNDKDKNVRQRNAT",
  "experiment": "Affinity measurements: fluorescence binding to adherent HL1 cells",
  "note": "No end group written: not given here.",
  "data": [
    {"sequence": "YKLPGHHHHYRP [AP-9]", "values": [
      {"measurement": "Kd", "result": "8 ± 0.6", "unit": "nM"}
    ]}
  ]
}
